From article PMC11588247, “Antimicrobial and antioxidant activities of peptide derived from turmeric plant (Curcuma longa L)” (PLOS ONE, 2024)
Ends that are not written are not given here.

Experiments:
[1] = ABTS radical scavenging assay; conditions: 10 μL sample + 190 μL ABTS solution, 5 min dark, absorbance 750 nm, ascorbic acid standard; hydrolysate at 100 μg/mL
Procedure: Radical scavenging antioxidant activity was determined according to the ABTS radical scavenging activity following the method described by Re et al. with slight modifications. Briefly, the solution of ABTS radical was prepared from the reaction between 7 mM ABTS (2,2-azino-bis (3-ethylbenzothiazoline-6-sulphonic acid) diammonium salt) and 2.45 mM ammonium persulphate. The resulting ABTS solution was diluted with distilled water to achieve an optical density of 0.7 at 750 nm. Then, a sample or standard of 10 μL was mixed with 190 μL of ABTS solution and incubated for 5 minutes in the dark. The absorbance was measured at 750 nm by a microplate reader (Synergy H1 Hybrid Multi-Mode Reader, Biotek, Winusky, VT, USA). Ascorbic acid was used as the standard.

[2] = DPPH radical scavenging assay; conditions: 10 μL sample + 190 μL 0.1 mM DPPH, 30 min dark, room temperature, absorbance 517 nm, ascorbic acid standard; hydrolysate at 100 μg/mL
Procedure: The DPPH radical scavenging activity of the sample was evaluated following the protocol by Muangrod et al. with slight modifications. Briefly, 190 μL of 0.1 mM DPPH was mixed with 10 μL of the sample or standard ascorbic acid in each well and incubated at room temperature in the dark for 30 minutes. The absorbance of the mixture was measured at 517 nm using a microplate reader (Synergy H1 Hybrid Multi-Mode Reader, Biotek, Winusky, VT, USA). The percentage inhibition of DPPH radical scavenging activity was calculated using the following equation: %DPPHinhibition=[(Acontrol−Asample)/Acontrol]×100 (2) where A control means the absorbance of the control that contained all reagents except the test samples, and A sample means the absorbance of the mixture (sample and 0.1 mM DPPH). Ascorbic acid was used as the standard. Results were expressed as μg ascorbic acid equivalent (μg AAE g^−1).

[3] = FRAP (ferric ion-reducing antioxidant power) assay; conditions: 10 μL sample + 190 μL FRAP reagent (acetate pH 3.6, TPTZ, FeCl3), 30 min dark, absorbance 593 nm, ascorbic acid standard; hydrolysate at 100 μg/mL
Procedure: The ferric ion-reducing antioxidant power assay was analyzed according to the method by Rumpf et al. with minor modifications. Briefly, the FRAP reagent was prepared from 300 mM sodium acetate (pH 3.6) and 10 mM TPTZ (2,4,6-tris (2-pyridyl)-s-triazine) in 40 mM HCl and 20 mM ferric chloride at the ratio of 10:1:1, respectively. Then, a 10 μL aliquot of the sample or standard was mixed with 190 μL of the FRAP reagent before incubating in the dark for 30 minutes. The absorbance was measured at 593 nm using a microplate reader (Synergy H1 Hybrid Multi-Mode Reader, Biotek, Winusky, VT, USA). Ascorbic acid (Sigma-Aldrich, Singapore) was used as the standard. Results were expressed as micrograms of ascorbic acid equivalent per gram (μg AAE g^−1).

[4] = test system: Acinetobacter baumannii (ATCC 19606); test: microbe, parasite or virus in culture; format: cell-based; conditions: sample 100 μg/mL, 6 h at 37°C, MTT OD570 vs inoculated broth control
Excerpt: (§1) Pathogenic microorganism composes of Escherichia coli (ATCC 25922), Staphylococcus aureus (ATCC 25923), Staphylococcus epidermidis (ATCC 12228), Bacillus subtilis (ATCC 6633), Bacillus cereus (ATCC 11778), Pseudomonas aeruginosa (ATCC 27853), Vibrio parahaemolyticus (ATCC 17802), Klebsiella pneumoniae (ATCC 27736), Acinetobacter baumannii (ATCC 19606), Enterobacter cloacae (ATCC 13047), Salmonella enterica (ATCC 13311), and Salmonella Typhi (ATCC 22842) were used in the experiments.
(§2) Bacteria were initially cultured on Tryptic Soy Agar (TSA) plates at 37°C for 12–16 hours. A single colony was transferred to Tryptic Soy Broth (TSB) and incubated at 37°C with gently agitation at 100 rpm, for an additional 12–16 hours. The bacterial concentration was adjusted to an optical density at 600 nm (OD600) of 0.05, corresponding to 4 x 10^7 CFU/mL, before being added to a 96-well plate (50 μL per well). Subsequently, 50 μL of protein hydrolysate or peptide was inoculated into each well at a final concentration of 100 μg/mL, and the mixture was incubated at 37°C with continuous shaking at 100 rpm for 6 hours. Wells with inoculated broth alone served as a negative control, while wells containing Ampicillin (100 μg/mL) served as a positive control. Following incubation, 25 μL of a 100 μg/mL MTT (3-(4,5-dimethylthiazol-2-yl)-2,5-diphenyltetrazolium bromide) solution was added to each well, thoroughly mixed, and incubated at room temperature for 4 hours. The optical density at 570 nm (OD570nm) was subsequently measured using a microplate reader (Synergy H1 Hybrid Multi-Mode Reader, Biotek, Winusky, VT, USA). The percentage of inhibition was calculated using the provided equation: [(OD570control–OD570test)/OD570control]×100 (1)

[5] = test system: Salmonella enterica (ATCC 13311); test: microbe, parasite or virus in culture; format: cell-based; conditions: sample 100 μg/mL, 6 h at 37°C, MTT OD570 vs inoculated broth control
Excerpt: as §1, §2

[6] = test system: Staphylococcus aureus (ATCC 25923); test: microbe, parasite or virus in culture; format: cell-based; conditions: sample 100 μg/mL, 6 h at 37°C, MTT OD570 vs inoculated broth control
Excerpt: as §1, §2

[7] = test system: Staphylococcus epidermidis (ATCC 12228); test: microbe, parasite or virus in culture; format: cell-based; conditions: sample 100 μg/mL, 6 h at 37°C, MTT OD570 vs inoculated broth control
Excerpt: as §1, §2

[8] = test system: Bacillus cereus (ATCC 11778); test: Antimicrobial activity assay (broth culture, MTT read-out); format: cell-based; conditions: ATCC11778, sample 100 μg/mL, 6 h at 37°C, MTT OD570 vs inoculated broth control, read-out: Inhibitory Percentage (Means±SD), Bacillus cereus ATCC 11778
Excerpt: as §1, §2

[9] = test system: Bacillus subtilis (ATCC 6633); test: as above; format: cell-based; conditions: ATCC6633, sample 100 μg/mL, 6 h at 37°C, MTT OD570 vs inoculated broth control, read-out: Inhibitory Percentage (Means±SD), Bacillus subtilis ATCC 6633
Excerpt: as §1, §2

[10] = test system: Enterobacter cloacae (ATCC 13047); test: as above; format: cell-based; conditions: ATCC13047, sample 100 μg/mL, 6 h at 37°C, MTT OD570 vs inoculated broth control, read-out: Inhibitory Percentage (Means±SD), Enterobacter cloacae ATCC 13047
Excerpt: as §1, §2

[11] = test system: Escherichia coli (ATCC 25922); test: as above; format: cell-based; conditions: ATCC25922, sample 100 μg/mL, 6 h at 37°C, MTT OD570 vs inoculated broth control, read-out: Inhibitory Percentage (Means±SD), Escherichia coli ATCC 25922
Excerpt: as §1, §2

[12] = test system: Klebsiella pneumoniae (ATCC 27736); test: as above; format: cell-based; conditions: ATCC27736, sample 100 μg/mL, 6 h at 37°C, MTT OD570 vs inoculated broth control, read-out: Inhibitory Percentage (Means±SD), Klebsiella pneumoniae ATCC 27736
Excerpt: as §1, §2

[13] = test system: Pseudomonas aeruginosa (ATCC 27853); test: as above; format: cell-based; conditions: ATCC27853, sample 100 μg/mL, 6 h at 37°C, MTT OD570 vs inoculated broth control, read-out: Inhibitory Percentage (Means±SD), Pseudomonas aeruginosa ATCC 27853
Excerpt: as §1, §2

[14] = test system: Salmonella Typhi (ATCC 22842); test: as above; format: cell-based; conditions: Salmonella enterica, 6 h, read-out: Inhibitory Percentage (Means±SD), Salmonella Typhi ATCC 22842
Excerpt: as §1, §2

[15] = test system: Vibrio parahaemolyticus (ATCC 17802); test: as above; format: cell-based; conditions: ATCC17802, sample 100 μg/mL, 6 h at 37°C, MTT OD570 vs inoculated broth control, read-out: Inhibitory Percentage (Means±SD), Vibrio parahaemolyticus ATCC 17802
Excerpt: as §1, §2

Compound	ABTS radical-scavenging activity (antioxidant activity ± SD) [1] [μg AAE g^−1]	DPPH radical scavenging activity (antioxidant activity ± SD) [2] [μg AAE g^−1]	FRAP (antioxidant activity ± SD) [3] [μg AAE g^−1]	further results
QIILLLLKP [Cur-9]	0.07±0.00	0.70±0.00	1.04±0.02	
PKVKILIL [Cur-4]	0.15±0.00	0.77±0.01	1.08±0.09	
HAFRDAVTPLE [Cur-12]	0.02±0.00	0.60±0.06	1.04±0.01	
CC1(C)S[C@@H]2[C@H](NC(=O)[C@H](N)c3ccccc3)C(=O)N2[C@H]1C(=O)O [Ampicillin]				inhibition at 100 µg/mL ([4]; Acinetobacter baumannii, ATCC19606, read-out: Inhibitory Percentage (Means±SD), Acinetobacter baumannii ATCC 19606): 42 ± 4.67%; inhibition at 100 µg/mL ([5]; Salmonella enterica, ATCC13311, read-out: Inhibitory Percentage (Means±SD), Salmonella enterica ATCC 13311): 84.6 ± 4.34%; inhibition at 100 µg/mL ([6]; Staphylococcus aureus, ATCC25923, read-out: Inhibitory Percentage (Means±SD), Staphylococcus aureus ATCC 25923): -2.72 ± 0.02%; inhibition at 100 µg/mL ([7]; Staphylococcus epidermidis, ATCC12228, read-out: Inhibitory Percentage (Means±SD), Staphylococcus epidermidis ATCC 12228): 7.42 ± 0.23%; inhibition at 100 µg/mL [8]: 35.9 ± 1.46%; inhibition at 100 µg/mL [9]: 96.5 ± 4.03%; inhibition at 100 µg/mL [10]: 15.6 ± 0.89%; inhibition at 100 µg/mL [11]: 82.1 ± 2.62%; inhibition at 100 µg/mL [12]: -19.1 ± 1.32%; inhibition at 100 µg/mL [13]: 16.3 ± 0.87%; inhibition at 100 µg/mL [14]: 8.6 ± 0.22%; inhibition at 100 µg/mL [15]: -45.8 ± 1.54%
PLKLLLPL [Cur-7]	0.15±0.00	0.74±0.02	1.04±0.00	
LKKTLLLVNKADLLP [Cur-5]	0.12±0.00	0.62±0.01	1.04±0.00	
KLHLLILI [Cur-1]	0.22±0.00	0.63±0.04	1.05±0.01	Inhibitory Percentage (Means±SD), Acinetobacter baumannii ATCC 19606 ([4]; listed as Cur-25): inhibited growth; Inhibitory Percentage (Means±SD), Salmonella enterica ATCC 13311 ([5]; listed as Cur-25): inhibited growth; Inhibitory Percentage (Means±SD), Staphylococcus aureus ATCC 25923 ([6]; listed as Cur-25): inhibited growth; Inhibitory Percentage (Means±SD), Staphylococcus epidermidis ATCC 12228 ([7]; listed as Cur-25): inhibited growth
VKLKIPLLIL [Cur-3]	0.08±0.00	0.67±0.00	1.04±0.00	
VLKKLLPLL [Cur-6]	0.09±0.01	0.67±0.06	1.05±0.00	
PLLLKLIV [Cur-2]	0.13±0.00	0.75±0.03	1.05±0.01	Inhibitory Percentage (Means±SD), Acinetobacter baumannii ATCC 19606 ([4]; listed as Cur-14): inhibited growth; Inhibitory Percentage (Means±SD), Salmonella enterica ATCC 13311 ([5]; listed as Cur-14): inhibited growth; Inhibitory Percentage (Means±SD), Staphylococcus aureus ATCC 25923 ([6]; listed as Cur-14): inhibited growth; Inhibitory Percentage (Means±SD), Staphylococcus epidermidis ATCC 12228 ([7]; listed as Cur-14): inhibited growth
VHVLLLIL [Cur-10]	0.30±0.01	0.75±0.04	1.04±0.00	
ARLLLLKP [Cur-8]	0.13±0.00	0.58±0.00	1.05±0.01	
LKKPVILL [Cur-11]	0.17±0.01	0.68±0.02	1.05±0.01	
